Laboratory results as given in PubChem BioAssay (NCI).
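Five concentrations, 48 hours, 96-well plates. GI50 is the concentration that inhibits growth by half. TGI denotes the concentration required for complete inhibition of growth.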

Key:
Assay in all cases: NCI-60 cell line screen, 48 h
MALME-3M melanoma = test system: MALME-3M melanoma
RXF 393 renal = test system: RXF 393 renal
SNB-75 CNS = test system: SNB-75 CNS
SF-268 CNS = test system: SF-268 CNS
SK-OV-3 ovarian = test system: SK-OV-3 ovarian
NCI-H522 lung = test system: NCI-H522 lung
SK-MEL-5 melanoma = test system: SK-MEL-5 melanoma
PC-3 prostate = test system: PC-3 prostate
OVCAR-3 ovarian = test system: OVCAR-3 ovarian
UACC-62 melanoma = test system: UACC-62 melanoma
NCI/ADR-RES ovarian = test system: NCI/ADR-RES ovarian
HOP-62 NSCLC = test system: HOP-62 NSCLC
HCT-116 colon = test system: HCT-116 colon
HOP-92 NSCLC = test system: HOP-92 NSCLC
NCI-H460 lung = test system: NCI-H460 lung
BT-549 breast = test system: BT-549 breast
SK-MEL-28 melanoma = test system: SK-MEL-28 melanoma
MCF7 breast = test system: MCF7 breast
RPMI-8226 leukemia = test system: RPMI-8226 leukemia
DU-145 prostate = test system: DU-145 prostate
U251 CNS = test system: U251 CNS
UACC-257 melanoma = test system: UACC-257 melanoma
EKVX NSCLC = test system: EKVX NSCLC
CAKI-1 renal = test system: CAKI-1 renal
MDA-MB-435 = test system: MDA-MB-435
CCRF-CEM leukemia = test system: CCRF-CEM leukemia
MOLT-4 leukemia = test system: MOLT-4 leukemia
786-0 renal = test system: 786-0 renal
OVCAR-8 ovarian = test system: OVCAR-8 ovarian
OVCAR-4 ovarian = test system: OVCAR-4 ovarian
A549 NSCLC = test system: A549 NSCLC
M14 melanoma = test system: M14 melanoma
A498 renal = test system: A498 renal
HT29 colon = test system: HT29 colon
OVCAR-5 ovarian = test system: OVCAR-5 ovarian
SNB-19 CNS = test system: SNB-19 CNS
IGROV1 ovarian = test system: IGROV1 ovarian
HCT-15 colon = test system: HCT-15 colon
HL-60(TB) leukemia = test system: HL-60(TB) leukemia
LOX IMVI melanoma = test system: LOX IMVI melanoma
HCC-2998 colon = test system: HCC-2998 colon
UO-31 renal = test system: UO-31 renal
MDA-MB-231 breast = test system: MDA-MB-231 breast
SR leukemia = test system: SR leukemia
SF-295 CNS = test system: SF-295 CNS
SN12C renal = test system: SN12C renal
SF-539 CNS = test system: SF-539 CNS
NCI-H23 lung = test system: NCI-H23 lung
T-47D breast = test system: T-47D breast
K-562 leukemia = test system: K-562 leukemia
COLO 205 colon = test system: COLO 205 colon
KM12 colon = test system: KM12 colon
HS 578T breast = test system: HS 578T breast
SK-MEL-2 melanoma = test system: SK-MEL-2 melanoma
NCI-H226 lung = test system: NCI-H226 lung
TK-10 renal = test system: TK-10 renal
SW-620 colon = test system: SW-620 colon
ACHN renal = test system: ACHN renal

`CC[C@H](C)[C@H](NC(=O)NC(C)(C)C)C(=O)N(C)[C@H](C[C@@H](OC(C)=O)c1nc(C(=O)N[C@@H](Cc2ccccc2)C[C@H](C)C(=O)OC)cs1)C(C)C` gave a GI50 (MALME-3M melanoma) of over 5.51 µM, a TGI (MALME-3M melanoma) of over 25 µM and a GI50 (RXF 393 renal) of 430 nM. The TGI (RXF 393 renal) was over 20.3 µM, the GI50 (SNB-75 CNS) was 293 nM and the TGI (SNB-75 CNS) was over 25 µM. For the same compound, the GI50 (SF-268 CNS) was 867 nM, the TGI (SF-268 CNS) was over 25 µM and the GI50 (SK-OV-3 ovarian) was 734 nM. It also gave a TGI (SK-OV-3 ovarian) of over 25 µM, a GI50 (NCI-H522 lung) of 107 nM and a TGI (NCI-H522 lung) of 765 nM. It also gave a GI50 (SK-MEL-5 melanoma) of 139 nM, a TGI (SK-MEL-5 melanoma) of 604 nM and a GI50 (PC-3 prostate) of 924 nM. It also gave a TGI (PC-3 prostate) of over 25 µM, a GI50 (OVCAR-3 ovarian) of 158 nM and a TGI (OVCAR-3 ovarian) of 964 nM. It also gave a GI50 (UACC-62 melanoma) of 172 nM, a TGI (UACC-62 melanoma) of over 25 µM and a GI50 (NCI/ADR-RES ovarian) of 1790 nM. It also gave a TGI (NCI/ADR-RES ovarian) of 24.9 µM, a GI50 (HOP-62 NSCLC) of 846 nM and a TGI (HOP-62 NSCLC) of over 25 µM. For the same compound, the GI50 (HCT-116 colon) was 417 nM, the TGI (HCT-116 colon) was over 25 µM and the GI50 (HOP-92 NSCLC) was 3000 nM. For the same compound, the TGI (HOP-92 NSCLC) was over 25 µM, the GI50 (NCI-H460 lung) was 699 nM and the TGI (NCI-H460 lung) was over 13.7 µM. For the same compound, the GI50 (BT-549 breast) was 241 nM, the TGI (BT-549 breast) was 1520 nM and the GI50 (SK-MEL-28 melanoma) was 2970 nM. The TGI (SK-MEL-28 melanoma) was over 25 µM, the GI50 (MCF7 breast) was 123 nM and the TGI (MCF7 breast) was over 25 µM. For the same compound, the GI50 (RPMI-8226 leukemia) was 263 nM, the TGI (RPMI-8226 leukemia) was 4.2 µM and the GI50 (DU-145 prostate) was 648 nM. It also gave a TGI (DU-145 prostate) of over 6.3 µM, a GI50 (U251 CNS) of 820 nM and a TGI (U251 CNS) of over 25 µM. The GI50 (UACC-257 melanoma) was 4.67 µM, the TGI (UACC-257 melanoma) was over 25 µM and the GI50 (EKVX NSCLC) was 1240 nM. For the same compound, the TGI (EKVX NSCLC) was over 25 µM, the GI50 (CAKI-1 renal) was 1120 nM and the TGI (CAKI-1 renal) was over 25 µM. The GI50 (MDA-MB-435) was 88.4 nM, the TGI (MDA-MB-435) was 486 nM and the GI50 (CCRF-CEM leukemia) was 718 nM. It also gave a TGI (CCRF-CEM leukemia) of over 25 µM, a GI50 (MOLT-4 leukemia) of 853 nM and a TGI (MOLT-4 leukemia) of over 25 µM. It also gave a GI50 (786-0 renal) of 609 nM, a TGI (786-0 renal) of 4.59 µM and a GI50 (OVCAR-8 ovarian) of 936 nM. It also gave a TGI (OVCAR-8 ovarian) of over 25 µM, a GI50 (OVCAR-4 ovarian) of 1210 nM and a TGI (OVCAR-4 ovarian) of over 25 µM. The GI50 (A549 NSCLC) was 1150 nM, the TGI (A549 NSCLC) was over 25 µM and the GI50 (M14 melanoma) was 476 nM. It also gave a TGI (M14 melanoma) of 2080 nM, a GI50 (A498 renal) of 154 nM and a TGI (A498 renal) of 4.31 µM. It also gave a GI50 (HT29 colon) of 324 nM, a TGI (HT29 colon) of over 8.91 µM and a GI50 (OVCAR-5 ovarian) of 2400 nM. The TGI (OVCAR-5 ovarian) was over 25 µM, the GI50 (SNB-19 CNS) was 1120 nM and the TGI (SNB-19 CNS) was over 25 µM. It also gave a GI50 (IGROV1 ovarian) of 556 nM, a TGI (IGROV1 ovarian) of over 25 µM and a GI50 (HCT-15 colon) of 686 nM. The TGI (HCT-15 colon) was 6.95 µM, the GI50 (HL-60(TB) leukemia) was 374 nM and the TGI (HL-60(TB) leukemia) was 1560 nM. For the same compound, the GI50 (LOX IMVI melanoma) was 768 nM, the TGI (LOX IMVI melanoma) was over 25 µM and the GI50 (HCC-2998 colon) was 507 nM. It also gave a TGI (HCC-2998 colon) of over 25 µM, a GI50 (UO-31 renal) of 1260 nM and a TGI (UO-31 renal) of over 25 µM. The GI50 (MDA-MB-231 breast) was 726 nM, the TGI (MDA-MB-231 breast) was 2980 nM and the GI50 (SR leukemia) was 141 nM. For the same compound, the TGI (SR leukemia) was over 11.4 µM, the GI50 (SF-295 CNS) was 485 nM and the TGI (SF-295 CNS) was 1830 nM. For the same compound, the GI50 (SN12C renal) was 1070 nM, the TGI (SN12C renal) was over 25 µM and the GI50 (SF-539 CNS) was 628 nM. It also gave a TGI (SF-539 CNS) of 1820 nM, a GI50 (NCI-H23 lung) of 825 nM and a TGI (NCI-H23 lung) of over 25 µM. The GI50 (T-47D breast) was over 19 µM, the TGI (T-47D breast) was over 25 µM and the GI50 (K-562 leukemia) was 461 nM. For the same compound, the TGI (K-562 leukemia) was over 25 µM, the GI50 (COLO 205 colon) was 446 nM and the TGI (COLO 205 colon) was 1120 nM. For the same compound, the GI50 (KM12 colon) was 682 nM, the TGI (KM12 colon) was over 25 µM and the GI50 (HS 578T breast) was 792 nM. It also gave a TGI (HS 578T breast) of over 15.3 µM, a GI50 (SK-MEL-2 melanoma) of 405 nM and a TGI (SK-MEL-2 melanoma) of over 25 µM. The GI50 (NCI-H226 lung) was 1950 nM, the TGI (NCI-H226 lung) was over 25 µM and the GI50 (TK-10 renal) was 963 nM. For the same compound, the TGI (TK-10 renal) was over 25 µM, the GI50 (SW-620 colon) was 646 nM and the TGI (SW-620 colon) was over 25 µM. It also gave a GI50 (ACHN renal) of 1150 nM and a TGI (ACHN renal) of over 25 µM.
